# Molecular target: T1, HDAC6 enzyme (Homo sapiens, UniProt Q9UBN7)
# T1 construct: transducing full length HDAC6 gene into Sf-9 insect cells; GST; purchased SignalChem; host or cells: Sf-9 insect cells
# T1 sequence (Q9UBN7 1-1215): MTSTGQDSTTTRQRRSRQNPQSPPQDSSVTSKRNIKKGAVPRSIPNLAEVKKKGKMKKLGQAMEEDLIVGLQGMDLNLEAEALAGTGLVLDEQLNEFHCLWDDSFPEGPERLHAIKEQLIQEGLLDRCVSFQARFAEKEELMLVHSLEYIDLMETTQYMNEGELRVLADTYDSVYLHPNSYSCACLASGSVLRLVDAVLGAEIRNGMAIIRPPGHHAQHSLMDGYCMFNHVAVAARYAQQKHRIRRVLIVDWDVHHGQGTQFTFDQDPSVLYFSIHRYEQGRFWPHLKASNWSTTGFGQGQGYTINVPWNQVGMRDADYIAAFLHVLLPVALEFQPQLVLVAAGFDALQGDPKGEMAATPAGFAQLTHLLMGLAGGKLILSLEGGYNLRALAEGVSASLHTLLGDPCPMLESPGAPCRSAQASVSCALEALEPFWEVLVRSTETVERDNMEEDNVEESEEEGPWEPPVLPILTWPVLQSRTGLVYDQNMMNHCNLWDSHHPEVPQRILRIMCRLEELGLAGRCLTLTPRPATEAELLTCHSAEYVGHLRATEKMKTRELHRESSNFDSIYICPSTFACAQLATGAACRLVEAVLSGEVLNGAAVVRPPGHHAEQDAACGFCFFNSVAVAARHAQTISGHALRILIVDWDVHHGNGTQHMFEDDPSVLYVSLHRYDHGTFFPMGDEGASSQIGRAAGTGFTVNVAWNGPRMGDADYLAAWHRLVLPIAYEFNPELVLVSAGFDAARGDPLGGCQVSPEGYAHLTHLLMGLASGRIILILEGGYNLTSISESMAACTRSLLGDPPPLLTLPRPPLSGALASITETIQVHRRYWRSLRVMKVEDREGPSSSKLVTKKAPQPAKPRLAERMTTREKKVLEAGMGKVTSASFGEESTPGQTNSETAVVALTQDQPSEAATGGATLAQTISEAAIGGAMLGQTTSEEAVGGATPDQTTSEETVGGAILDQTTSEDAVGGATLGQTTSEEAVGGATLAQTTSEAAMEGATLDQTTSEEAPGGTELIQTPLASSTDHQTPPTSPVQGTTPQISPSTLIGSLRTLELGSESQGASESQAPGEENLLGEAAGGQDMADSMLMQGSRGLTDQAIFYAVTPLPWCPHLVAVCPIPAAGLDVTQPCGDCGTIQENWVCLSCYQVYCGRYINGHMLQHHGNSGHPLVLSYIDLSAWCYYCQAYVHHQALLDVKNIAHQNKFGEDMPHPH
# Assay: HDAC6 enzyme inhibitory activity (HDAC-Glo I/II Assay kit)
# Type: biochemical
# Settings: 10 μM; wells without enzyme = 100% inhibition
# Outline: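 Inhibition is calculated as relative activity, taking luminescence in enzyme-free wells as complete inhibition. The enzyme, full-length and GST-purified after Sf-9 expression, was exposed to compound for 60 min at room temperature before a 20 min HDAC-Glo reaction.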
row,HDAC6 inhibitory rate (%) (10 μM),Compound
1,99,"O=C1c2cc(-c3nnc(C(F)F)o3)ccc2CN1N1CCC(F)(F)CC1c1ccc(F)cn1 (stereo not drawn) [Example 610, 2-(4,4-Difluoro-2-(5-fluoropyridin-2-yl)piperidin-1-yl)-6-(5-(difluoromethyl)-1,3,4-oxadiazol-2-yl)isoindolin-1-one (Optical Isomer)]"
2,99,"O=C1c2cc(-c3nnc(C(F)F)o3)ccc2CN1N1CCC(F)(F)CC1c1ccc(F)cn1 (stereo not drawn) [Example 612, 2-(4,4-Difluoro-2-(5-fluoropyridin-2-yl)piperidin-1-yl)-6-(5-(difluoromethyl)-1,3,4-oxadiazol-2-yl)isoindolin-1-one (Optical Isomer)]"
3,99,"Cc1ccc(C2CC(F)(F)CCN2N2Cc3ccc(-c4nnc(C(F)F)o4)cc3C2=O)nc1 (stereo not drawn) [Example 614, 6-(5-(difluoromethyl)-1,3,4-oxadiazol-2-yl)-2-(4,4-difluoro-2-(5-methylpyridin-2-yl)piperidin-1-yl)isoindolin-1-one (optical isomer)]"
4,99,"Cc1ccc(C2CC(F)(F)CCN2N2Cc3ccc(-c4nnc(C(F)F)o4)cc3C2=O)nc1 (stereo not drawn) [Example 615, 6-(5-(difluoromethyl)-1,3,4-oxadiazol-2-yl)-2-(4,4-difluoro-2-(5-methylpyridin-2-yl)piperidin-1-yl)isoindolin-1-one (optical isomer)]"

# Same assay, conditions: 10 μM; wells without enzyme = 100% inhibition; read-out: HDAC6 inhibitory rate (%) (10 μM)
row,inhibition at 10 µM [%],Compound
1,99,"CC(C)(OC(=O)N[C@H]1[C@H](N2Cc3ncc(-c4nnc(C(F)F)o4)cc3C2=O)CCCC1(F)F)C(F)F [Example 608, 1,1-difluoro-2-methylpropan-2-yl ((1S,6R)-6-(3-(5-(difluoromethyl)-1,3,4-oxadiazol-2-yl)-5-oxo-5,7-dihydro-6H-pyrrolo[3,4-b]pyridin-6-yl)-2,2-difluorocyclohexyl)carbamate]"
2,99,"Cn1cc(C2CCCCN2N2Cc3ccc(-c4nnc(C(F)F)o4)cc3C2=O)cn1 (stereo not drawn) [Example 609, 6-(5-(difluoromethyl)-1,3,4-oxadiazol-2-yl)-2-(2-(1-methyl-1H-pyrazol-4-yl)piperidin-1-yl)isoindolin-1-one]"
3,101,"CC(=O)N1CCC(C2CCCCN2N2Cc3ccc(-c4nnc(C(F)F)o4)cc3C2=O)CC1 (stereo not drawn) [Example 611, 2-(1′-acetyl-2,4′-bipiperidin-1-yl)-6-(5-(difluoromethyl)-1,3,4-oxadiazol-2-yl)isoindolin-1-one]"
4,99,"O=C(N[C@H]1[C@H](N2Cc3ncc(-c4nnc(C(F)F)o4)cc3C2=O)CCCC1(F)F)C(C(F)(F)F)C(F)(F)F [Example 613, N-((1S,6R)-6-(3-(5-(difluoromethyl)-1,3,4-oxadiazol-2-yl)-5-oxo-5,7-dihydro-6H-pyrrolo[3,4-b]pyridin-6-yl)-2,2-difluorocyclohexyl)-3,3,3-trifluoro-2-(trifluoromethyl)propanamide]"
5,89,"O=C1c2cc(-c3nnc(C(F)F)o3)ccc2CN1c1cccn2ccnc12 [Example 616, 6-(5-(difluoromethyl)-1,3,4-oxadiazol-2-yl)-2-(imidazo[1,2-a]pyridin-8-yl)isoindolin-1-one]"
6,100,"O=C1c2cc(-c3nnc(C(F)F)o3)ccc2CN1N1CCOCC1c1ccc(F)cc1 (stereo not drawn) [Example 617, 6-(5-(difluoromethyl)-1,3,4-oxadiazol-2-yl)-2-(3-(4-fluorophenyl)morpholin-4-yl)isoindolin-1-one]"
7,100,"O=C(N[C@@H]1[C@H](N2Cc3ccc(-c4nnc(C(F)F)o4)cc3C2=O)CCCC1(F)F)OCc1ccccc1 [Example 619, benzyl ((1R,6R)-6-(6-(5-(difluoromethyl)-1,3,4-oxadiazol-2-yl)-1-oxo-1,3-dihydro-2H-isoindol-2-yl)-2,2-difluorocyclohexyl)carbamate]"
8,88,"N[C@@H]1[C@H](N2Cc3ccc(-c4nnc(C(F)F)o4)cc3C2=O)CCCC1(F)F [Example 621, 2-((1R,2R)-2-amino-3,3-difluorocyclohexyl)-6-(5-(difluoromethyl)-1,3,4-oxadiazol-2-yl)isoindolin-1-one]"
9,100,"O=C(NCC(F)(F)C(F)(F)F)C1CC(F)(F)CCN1N1Cc2ccc(-c3nnc(C(F)F)o3)cc2C1=O (stereo not drawn) [Example 622, 1-(6-(5-(difluoromethyl)-1,3,4-oxadiazol-2-yl)-1-oxo-1,3-dihydro-2H-isoindol-2-yl)-4,4-difluoro-N-(2,2,3,3,3-pentafluoropropyl)piperidine-2-carboxamide]"
10,100,"O=C(NCC(F)F)C1CC(F)(F)CCN1N1Cc2ccc(-c3nnc(C(F)F)o3)cc2C1=O (stereo not drawn) [Example 623, N-(2,2-difluoroethyl)-1-(6-(5-(difluoromethyl)-1,3,4-oxadiazol-2-yl)-1-oxo-1,3-dihydro-2H-isoindol-2-yl)-4,4-difluoropiperidine-2-carboxamide]"
11,101,"O=C1c2cc(-c3nnc(C(F)F)o3)ccc2CN1[C@@H]1CCCC(F)(F)[C@@H]1NC(=O)C(F)(F)C(F)(F)F [Example 625, N-((1R,6R)-6-(6-(5-(difluoromethyl)-1,3,4-oxadiazol-2-yl)-1-oxo-1,3-dihydro-2H-isoindol-2-yl)-2,2-difluorocyclohexyl)-2,2,3,3,3-pentafluoropropanamide]"
12,100,"CC(F)(F)C(=O)N[C@@H]1[C@H](N2Cc3ccc(-c4nnc(C(F)F)o4)cc3C2=O)CCCC1(F)F [Example 626, N-((1R,6R)-6-(6-(5-(difluoromethyl)-1,3,4-oxadiazol-2-yl)-1-oxo-1,3-dihydro-2H-isoindol-2-yl)-2,2-difluorocyclohexyl)-2,2-difluoropropanamide]"
13,100,"COC(=O)N1CCC[C@@H](N2Cc3ccc(-c4nnc(C(F)F)o4)cc3C2=O)[C@H]1c1ccc(F)cc1 [Example 627, methyl (2R,3R)-3-(6-(5-(difluoromethyl)-1,3,4-oxadiazol-2-yl)-1-oxo-1,3-dihydro-2H-isoindol-2-yl)-2-(4-fluorophenyl)piperidine-1-carboxylate]"
14,100,"O=C1c2cc(-c3nnc(C(F)F)o3)ccc2CN1[C@@H]1CCCC(F)(F)[C@@H]1NC(=O)C(F)(F)C(F)F [Example 628, N-((1R,6R)-6-(6-(5-(difluoromethyl)-1,3,4-oxadiazol-2-yl)-1-oxo-1,3-dihydro-2H-isoindol-2-yl)-2,2-difluorocyclohexyl)-2,2,3,3-tetrafluoropropanamide]"
15,100,"O=C(N[C@@H]1[C@H](N2Cc3ccc(-c4nnc(C(F)F)o4)cc3C2=O)CCCC1(F)F)C(F)F [Example 629, N-((1R,6R)-6-(6-(5-(difluoromethyl)-1,3,4-oxadiazol-2-yl)-1-oxo-1,3-dihydro-2H-isoindol-2-yl)-2,2-difluorocyclohexyl)-2,2-difluoroacetamide]"
16,100,"Cc1ccc(C2CCCCN2N2Cc3ccc(-c4nnc(C(F)F)o4)cc3C2=O)cn1 (stereo not drawn) [Example 630, 6-(5-(difluoromethyl)-1,3,4-oxadiazol-2-yl)-2-(2-(6-methylpyridin-3-yl)piperidin-1-yl)isoindolin-1-one]"
17,99,"Cn1cc(C(C)(C)O)c(N2Cc3ccc(-c4nnc(C(F)F)o4)cc3C2=O)n1 [Example 631, 6-(5-(difluoromethyl)-1,3,4-oxadiazol-2-yl)-2-(4-(2-hydroxypropan-2-yl)-1-methyl-1H-pyraozl-3-yl)isoindolin-1-one]"
